Source: patent US8871751B2, “Compositions and methods relating to nuclear hormone and steroid hormone receptors including inhibitors of estrogen receptor alpha-mediated gene expression and inhibition of breast cancer” (The Board of Trustees of the University of Illinois, priority 2008, dated 2014)
pIC50: −log10 of the molar value. Values joined by “and” are separate entries in the source; they are usually repeats but may differ in a detail not shown here. Equal values may be shown once. “Also recorded” adds a separate entry of the source. Read-outs that look alike come from different tables or passages of the source.

Tests used:
[1] = target: T1, human ERα binding to flcERE (Homo sapiens, UniProt P03372); assay: FAMA: inhibition of ERα binding to flcERE; settings: for pIC50: FAMA; for inhibition of binding of ERα to the flcERE: 5 μM TPBM
T1 construct: Full-length FLAG-tagged human ERα was expressed and purified as described previously (27); FLAG; made in house
T1 sequence (P03372 1-595): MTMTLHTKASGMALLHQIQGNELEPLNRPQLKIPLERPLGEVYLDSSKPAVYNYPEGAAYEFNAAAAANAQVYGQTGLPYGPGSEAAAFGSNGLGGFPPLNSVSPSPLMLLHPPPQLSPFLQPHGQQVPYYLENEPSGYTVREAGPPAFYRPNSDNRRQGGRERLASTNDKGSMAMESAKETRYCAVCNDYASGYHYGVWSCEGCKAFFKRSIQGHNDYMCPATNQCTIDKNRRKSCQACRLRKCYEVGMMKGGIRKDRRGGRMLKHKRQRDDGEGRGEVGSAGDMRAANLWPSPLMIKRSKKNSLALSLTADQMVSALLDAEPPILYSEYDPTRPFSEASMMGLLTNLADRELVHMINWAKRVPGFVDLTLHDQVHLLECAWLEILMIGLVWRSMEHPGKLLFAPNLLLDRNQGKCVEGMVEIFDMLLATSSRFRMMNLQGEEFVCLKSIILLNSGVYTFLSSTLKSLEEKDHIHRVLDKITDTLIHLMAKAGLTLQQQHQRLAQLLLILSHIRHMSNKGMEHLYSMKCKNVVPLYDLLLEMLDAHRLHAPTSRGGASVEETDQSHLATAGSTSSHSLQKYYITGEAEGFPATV
Description: Prior to screening, the 10 mM library stocks were diluted to produce replica libraries in 384-well plates containing each small molecule at 0.25 mM (in DMSO). In our initial studies we were concerned that forming the flcERE-ERα complex first and then adding the candidate small molecule inhibitors would miss small molecules that bind at the interface. We therefore screened using the “sequential” method in which the candidate small molecules were first incubated with ERα and followed by addition of the flcERE. The assay for binding of ERα to the flcERE is a modification of our earlier assay (27). Assays were carried out at room temperature in black wall 384-well microplates (Greiner/Bio-One) in a total volume of 10 μl in buffer containing 20 mM Tris pH 7.5, 10% glycerol, 0.2 mM EDTA, 2 mM DTT, 100 mM KCl, 0.5 ng/μl poly dl:dC, […] bovine serum albumin and 100 nM 17β-estradiol (E2). For high throughput screening, a master mix without ERα and probe was prepared at 4° C. The master mix was divided into 2 parts. ERα was added to one part to 5 nM in the final assays. 7 μl of the ERα-containing mix was then dispensed into each well of a 384-well plate on ice. 100 nl of the compounds being tested was then added using a pin-transporter (V & P Scientific, Inc, CA) to a final concentration of 2.5 μM. The samples were mixed using the pin-transporter and sedimented by centrifugation for 2 min. at 4° C. and incubated on ice for 10 min. The flcERE probe was added to the other aliquot of the mix to 1 nM. 3 μl of the mix containing the flcERE probe was added to each well containing ERα and the test compound. The samples were mixed using the pin-transporter, the plates were briefly centrifuged and incubated at room temperature for 10 min. and fluorescence anisotropy (FA) was measured using a BMG PheraStar (BMG Labtech) microplate reader (module: 485 520) with excitation at 485λ and emission at 520λ. To identify small molecules that were highly fluorescent, or quench fluorescence, fluorescence intensity was also measured.
Dose response curves for selected compounds were carried out as described for the HTS screen except that each well contained the indicated concentration of test compound. PR assays were carried out in the same buffer used for ERα assays and contained 1 nM flcPRE and 11 nM PR-B and 100 nM progesterone. The buffer used for AR was similar but also contained 5 μM ZnCl, 5 mM NaF, 0.6 μM CHAPS and 100 nM dihydrotestosterone. AR assays contained 1 nM flcARE and 50 nM full-length wild-type AR.

[2] = test system: ERα negative MDA-MB-231 cells; assay: MDA-MB-231 cell growth / toxicity assay (MTS); format: cell-based, human; settings: for effect on growth of MDA-MB-231 cells (toxicity): up to 30 μM, Example 1 assays (1 day / 5 days); for effect on growth of ER negative MDA-MB-231 cells: all concentrations
Description: ERα negative MDA-MB-231 human breast cancer cells were used to test for generalized toxicity of the test compounds. To parallel the reporter gene assays in stably transfected T47D breast cancer cells, 5,000 MDA-MB-231 cells per well were plated in a 96 well plate. The cells were maintained in the medium described above for the T47D cells. One day after plating, the same concentration of test compound used in the reporter gene assay (up to 30 μM) was added. After 24 h the MTS assay was carried out as described above. A more stringent toxicity assay parallels the assay for inhibition of estrogen-dependent growth of BG-1 cells. 250 MDA-MB-231 cells were plated per well and maintained and assayed as described for the BG-1 cells. Several compounds without detectable toxicity in the 24-h assay inhibited MDA-MB-231 cell growth in the 5-6 day assay.
Assays for Cell Growth and Viability. Cells were maintained in the media listed above containing CD-treated serum for at least 4 days prior to the experiment. To minimize cell aggregation, MCF-7 cells were harvested in 10 mM Hepes, pH 7.4, 1 mM EDTA. Other cell lines were harvested in trypsin-EDTA. 1,000 cells were plated into each well of a 96 well plate. For slow growing ZR-75 cells, 2,000 cells were plated/well. The cells were maintained in medium containing CD-treated serum for 24 hours. At 24 hours the medium was changed and E2 and DMSO vehicle or TPSF in DMSO was added. The medium was replaced after 2 days (except for BT474 cells whose medium was not changed). After 4 days viable cells were determined using a cell viability test, Promega CellTiter 96 Aqueous One Solution Cell Proliferation Assay (MTS) (Promega, Wis.).

[3] = binding to HRE, 5 concentrations 0.5-10 μM, sequential method, read-out: IC50 ERα

## CN(C)CCCn1c2c3ccccc3ccc2c2oc(=O)c3ccccc3c21 [Compound 638432]
[1]; [3]
  pIC50: 5.60

## Cn1c(=O)c2nc(CSCc3ccccc3)[nH]c2n(C)c1=O [Compound 95910, 8-Benzylsulfanylmethyl-1,3-dimethyl-3,7-dihydro-purine-2,6-dione]
[2]
  effect on growth of MDA-MB-231 cells (toxicity): No toxicity
[2]; listed as TPBM
  effect on growth of MDA-MB-231 cells (toxicity): had no effect; also recorded: no inhibition
[1]; absence of zinc
  inhibition of binding of ERα to the flcERE: 76±7%
[1]; presence of 50 μM zinc
  inhibition of binding of ERα to the flcERE: 68±6%
[1]; [3]
  pIC50: 5.52
[1]; read-out: IC50 for inhibition of ERα binding to the flcERE
  pIC50: ~5.52 and 5.46

## CN1CCC(C#N)c2ccccc21 (centres unmarked) [Compound 1529]
[2]; 30 μM, 5 days
  reduction of growth of MDA-MB-231 cells: 50-60%
[2]; 1-20 μM, 5 days
  effect on growth of MDA-MB-231 cells: unaffected
[1]; [3]
  pIC50: 5.40

## Cn1c(=S)c2[nH]c(SCCCC(=O)c3ccc(F)cc3)nc2n(C)c1=O [TPSF, Butyrophenone, p-fluoro-4-(1,2,3,6,-tetrahydro-1,3-dimethyl-2-oxo-6-thionopurin-8-ylthio)]
[2]; Homo sapiens, MDA-MB-231, 96 h, 4 days, MTS, read-out: IC50 for inhibition of MDA-MB-231 (ER Neg. cells) cell growth
  pIC50: < 4.52
[2]; all concentrations tested, including 30 μM, 4 days
  inhibition of growth of MDA-MB-231 cells: 0%
[2]; including 30 μM, 4 days
  effect on growth of ER negative MDA-MB-231 cells: did not inhibit growth; also recorded: lacks toxicity
[2]; including 30 μM, 4 days, listed as 97998/TPSF
  effect on growth of ER negative MDA-MB-231 cells: did not inhibit growth; also recorded: does not inhibit growth
